PMC8566089 (Bioorganic Chemistry, 2021)
Where two headings read alike, the source gives them in different places.

Legend:
[1] = test system: HCT116 (colon cancer cell line); experiment: PI-flow cytometry cell cycle analysis; format: cell-based
[2] = test system: HCT116 (colon cancer cell line); experiment: Annexin V-FITC apoptosis/necrosis study; format: cell-based; conditions: at MTT-IC50 of the agent
[3] = test system: A431 (squamous skin) cancer cell line; experiment: MTT antiproliferative assay, A431; format: cell-based; conditions: for IC50: Homo sapiens, A-431, 72 h, read-out: IC50 ± SE, A431; for SI (selectivity index), A431: IC50 of RPE1 relative to that of A431
[4] = test system: MCF7 (breast) cancer cell line; experiment: MTT antiproliferative assay, MCF7; format: cell-based; conditions: for IC50: Homo sapiens, MCF7, 72 h, read-out: IC50 ± SE, MCF7; for SI (selectivity index), MCF7: IC50 of RPE1 relative to that of MCF7
[5] = test system: HCT116 (colon) cancer cell line; experiment: MTT antiproliferative assay, HCT116; format: cell-based; conditions: for IC50: Homo sapiens, HCT-116, 72 h, read-out: IC50 ± SE, HCT116; for SI (selectivity index), HCT116: IC50 of RPE1 relative to that of HCT116
[6] = test system: RPE1 (normal human immortalized retinal pigment epithelial cell line); experiment: MTT assay against normal RPE1 cells; format: cell-based; conditions: RPE-1, read-out: IC50 ± SE, RPE1
VEGFR-2 [7] = target: T1, VEGFR-2 (Homo sapiens, UniProt P35968); experiment: VEGFR-2 Western blot in MCF7; format: cell-based; conditions: for VEGFR2 MCF7 % Inhibition: Western blot at MTT-IC50; for VEGFR2 MCF7 RQ (relative quantification): Western blot at MTT-IC50, control RQ 3.725
T1 sequence (P35968 20-1356): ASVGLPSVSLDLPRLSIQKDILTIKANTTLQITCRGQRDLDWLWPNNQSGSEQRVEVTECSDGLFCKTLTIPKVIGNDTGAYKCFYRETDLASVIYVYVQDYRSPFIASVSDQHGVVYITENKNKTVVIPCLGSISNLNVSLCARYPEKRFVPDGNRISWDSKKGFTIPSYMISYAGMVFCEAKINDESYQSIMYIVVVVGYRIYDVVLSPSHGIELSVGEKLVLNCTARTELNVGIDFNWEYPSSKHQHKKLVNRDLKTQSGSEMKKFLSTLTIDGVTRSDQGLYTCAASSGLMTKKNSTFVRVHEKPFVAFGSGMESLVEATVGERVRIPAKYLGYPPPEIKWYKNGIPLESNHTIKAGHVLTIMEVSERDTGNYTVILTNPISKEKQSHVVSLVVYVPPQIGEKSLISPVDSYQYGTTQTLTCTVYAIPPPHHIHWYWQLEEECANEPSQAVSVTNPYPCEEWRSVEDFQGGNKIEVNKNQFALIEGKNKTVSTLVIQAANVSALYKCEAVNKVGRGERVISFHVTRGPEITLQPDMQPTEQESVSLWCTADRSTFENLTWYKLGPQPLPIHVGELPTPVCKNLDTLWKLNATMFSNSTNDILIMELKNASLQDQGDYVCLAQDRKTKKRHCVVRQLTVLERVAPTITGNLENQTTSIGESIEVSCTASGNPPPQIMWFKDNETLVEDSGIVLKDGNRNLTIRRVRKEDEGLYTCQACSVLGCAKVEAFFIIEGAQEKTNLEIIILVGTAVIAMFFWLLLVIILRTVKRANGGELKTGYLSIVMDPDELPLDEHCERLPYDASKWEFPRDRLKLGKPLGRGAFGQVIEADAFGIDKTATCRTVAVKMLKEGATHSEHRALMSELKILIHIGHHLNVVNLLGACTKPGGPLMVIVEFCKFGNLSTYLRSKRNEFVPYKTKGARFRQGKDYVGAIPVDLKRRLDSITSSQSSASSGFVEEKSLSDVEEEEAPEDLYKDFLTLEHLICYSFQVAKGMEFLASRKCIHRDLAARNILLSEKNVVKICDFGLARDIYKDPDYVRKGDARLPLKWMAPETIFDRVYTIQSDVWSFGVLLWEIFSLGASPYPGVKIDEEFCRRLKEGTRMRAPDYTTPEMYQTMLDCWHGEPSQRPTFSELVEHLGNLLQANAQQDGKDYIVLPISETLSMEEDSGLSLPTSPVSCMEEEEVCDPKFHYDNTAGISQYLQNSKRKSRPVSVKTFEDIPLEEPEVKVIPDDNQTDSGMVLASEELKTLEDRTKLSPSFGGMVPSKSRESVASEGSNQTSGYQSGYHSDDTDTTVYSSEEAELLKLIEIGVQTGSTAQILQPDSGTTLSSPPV

VEGFR-2 [8] = target: T1, VEGFR-2; experiment: VEGFR-2 Western blot in HCT116; format: cell-based; conditions: for VEGFR2 HCT116 % Inhibition: Western blot at MTT-IC50; for VEGFR2 HCT116 RQ (relative quantification): Western blot at MTT-IC50, control RQ 3.817
EGFR [9] = target: T2, EGFR (Homo sapiens, UniProt P00533); experiment: EGFR Western blot in MCF7; format: cell-based; conditions: for EGFR MCF7 % Inhibition: Western blot at MTT-IC50; for EGFR MCF7 RQ (relative quantification): Western blot at MTT-IC50, control RQ 4.226
T2 sequence (P00533 25-1210): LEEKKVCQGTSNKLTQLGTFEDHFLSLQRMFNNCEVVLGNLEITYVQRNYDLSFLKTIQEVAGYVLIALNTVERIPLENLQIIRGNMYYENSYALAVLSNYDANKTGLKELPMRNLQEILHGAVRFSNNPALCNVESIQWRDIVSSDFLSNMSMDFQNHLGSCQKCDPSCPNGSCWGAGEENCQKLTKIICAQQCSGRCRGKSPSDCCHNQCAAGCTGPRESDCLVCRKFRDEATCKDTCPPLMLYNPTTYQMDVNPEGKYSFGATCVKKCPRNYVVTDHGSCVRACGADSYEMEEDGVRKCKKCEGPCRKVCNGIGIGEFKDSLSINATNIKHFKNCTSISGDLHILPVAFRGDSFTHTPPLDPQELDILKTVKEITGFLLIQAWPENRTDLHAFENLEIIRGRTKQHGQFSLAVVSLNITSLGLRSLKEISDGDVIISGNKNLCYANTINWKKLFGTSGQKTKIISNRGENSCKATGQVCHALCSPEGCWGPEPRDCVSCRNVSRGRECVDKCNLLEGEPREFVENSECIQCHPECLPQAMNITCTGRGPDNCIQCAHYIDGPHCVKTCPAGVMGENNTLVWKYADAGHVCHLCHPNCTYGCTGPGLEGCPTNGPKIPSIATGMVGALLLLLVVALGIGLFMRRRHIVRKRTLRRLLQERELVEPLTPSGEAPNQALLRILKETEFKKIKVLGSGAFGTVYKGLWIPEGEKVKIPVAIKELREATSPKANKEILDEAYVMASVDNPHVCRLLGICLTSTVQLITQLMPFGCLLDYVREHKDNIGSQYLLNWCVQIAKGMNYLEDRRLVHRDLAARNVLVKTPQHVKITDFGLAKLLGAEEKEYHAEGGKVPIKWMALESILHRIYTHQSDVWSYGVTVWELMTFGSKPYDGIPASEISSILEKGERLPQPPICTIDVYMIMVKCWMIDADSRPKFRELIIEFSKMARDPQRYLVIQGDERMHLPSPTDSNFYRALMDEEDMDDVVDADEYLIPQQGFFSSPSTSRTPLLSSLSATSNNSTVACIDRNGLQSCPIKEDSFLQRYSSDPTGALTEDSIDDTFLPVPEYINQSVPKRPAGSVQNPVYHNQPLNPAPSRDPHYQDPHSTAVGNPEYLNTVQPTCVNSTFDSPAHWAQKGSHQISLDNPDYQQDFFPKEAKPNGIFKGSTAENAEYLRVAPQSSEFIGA

EGFR [10] = target: T2, EGFR; experiment: EGFR Western blot in HCT116; format: cell-based; conditions: for EGFR HCT116 % Inhibition: Western blot at MTT-IC50; for EGFR HCT116 RQ (relative quantification): Western blot at MTT-IC50, control RQ 4.0382
COX-1 = target: T3, COX-1 (Ovis aries, UniProt P05979); experiment: COX-1 inhibitor screening kit; format: biochemical
T3 sequence (P05979 25-600): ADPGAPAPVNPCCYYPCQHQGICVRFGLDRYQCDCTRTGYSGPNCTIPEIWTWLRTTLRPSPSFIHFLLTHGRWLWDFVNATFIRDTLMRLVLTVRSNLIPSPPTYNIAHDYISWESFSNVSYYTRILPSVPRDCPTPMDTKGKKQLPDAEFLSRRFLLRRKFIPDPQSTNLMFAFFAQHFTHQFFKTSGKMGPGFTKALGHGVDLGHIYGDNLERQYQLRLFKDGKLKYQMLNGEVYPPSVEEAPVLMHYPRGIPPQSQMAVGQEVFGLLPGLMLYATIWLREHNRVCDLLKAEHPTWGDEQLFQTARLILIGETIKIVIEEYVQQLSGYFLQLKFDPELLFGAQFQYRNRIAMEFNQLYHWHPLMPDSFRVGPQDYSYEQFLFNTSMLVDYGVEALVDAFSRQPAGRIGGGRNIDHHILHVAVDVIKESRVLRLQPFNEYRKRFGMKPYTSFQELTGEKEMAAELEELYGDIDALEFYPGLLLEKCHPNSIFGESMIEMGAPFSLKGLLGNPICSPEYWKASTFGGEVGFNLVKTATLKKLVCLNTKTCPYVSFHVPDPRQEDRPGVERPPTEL

COX-2 = target: T4, COX-2 (Homo sapiens, UniProt P35354); experiment: COX-2 inhibitor screening kit; format: biochemical
T4 sequence (P35354 18-604): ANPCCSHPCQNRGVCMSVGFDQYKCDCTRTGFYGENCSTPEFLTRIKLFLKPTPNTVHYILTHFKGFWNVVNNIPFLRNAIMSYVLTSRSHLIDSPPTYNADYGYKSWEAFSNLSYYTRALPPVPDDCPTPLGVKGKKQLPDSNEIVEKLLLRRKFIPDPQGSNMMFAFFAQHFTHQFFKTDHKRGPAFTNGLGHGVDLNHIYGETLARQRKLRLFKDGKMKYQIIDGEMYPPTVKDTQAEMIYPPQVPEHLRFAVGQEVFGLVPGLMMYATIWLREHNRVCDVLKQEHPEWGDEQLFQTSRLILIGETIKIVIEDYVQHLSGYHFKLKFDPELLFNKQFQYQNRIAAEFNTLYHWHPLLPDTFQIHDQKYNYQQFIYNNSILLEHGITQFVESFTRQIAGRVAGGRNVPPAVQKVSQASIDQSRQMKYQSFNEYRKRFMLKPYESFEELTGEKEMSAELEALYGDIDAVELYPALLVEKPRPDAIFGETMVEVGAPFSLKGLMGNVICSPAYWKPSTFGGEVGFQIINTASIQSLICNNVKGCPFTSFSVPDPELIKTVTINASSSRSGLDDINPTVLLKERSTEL

[11] = test system: SARS-CoV-2 (hCoV-19/Egypt/NRC-03/2020); conditions: SARS-CoV-2 / VERO-E6

Row | Compound | IC50 [3] [µM] | SI (selectivity index), A431 [3] | IC50 [4] [µM] | SI (selectivity index), MCF7 [4] | IC50 [5] [µM] | SI (selectivity index), HCT116 [5] | IC50 [6] [µM] | VEGFR2 MCF7 % Inhibition (VEGFR-2 [7]) [%] | VEGFR2 MCF7 RQ (relative quantification) (VEGFR-2 [7]) | VEGFR2 HCT116 % Inhibition (VEGFR-2 [8]) [%] | VEGFR2 HCT116 RQ (relative quantification) (VEGFR-2 [8]) | EGFR MCF7 % Inhibition (EGFR [9]) [%] | EGFR MCF7 RQ (relative quantification) (EGFR [9]) | EGFR HCT116 % Inhibition (EGFR [10]) [%] | EGFR HCT116 RQ (relative quantification) (EGFR [10]) | IC50 (COX-1) [µM] | IC50 (COX-2) [µM] | SI = IC50(COX-1)/IC50(COX-2) (COX-2) | SI = CC50/IC50 [11] | further results
1 | CCN(CC)CCNC(=O)c1c(C)[nH]c(/C=C2\C(=O)Nc3ccc(F)cc32)c1C [Sunitinib, reference compound] | – | – | – | – | – | – | – | – | – | – | – | – | – | – | – | – | – | – | – | phase of cell cycle arrest ([1]; PI-flow cytometry): S-phase; DNA content (%) G0-G1 ([1]; at MTT-IC50 of the agent): 46.18%; DNA content (%) G2/M ([1]; at MTT-IC50 of the agent): 7.59%; DNA content (%) Pre-G1 ([1]; at MTT-IC50 of the agent): 31.69%; DNA content (%) S ([1]; at MTT-IC50 of the agent): 46.23%; Apoptosis (%) Early [2]: 2.54%; Apoptosis (%) Late [2]: 21.69%; Apoptosis (%) Total [2]: 31.69%; Necrosis (%) [2]: 7.46%
2 | CC(=O)Oc1ccc(Cl)cc1C(=O)N1C/C(=C\c2cccs2)C(=O)/C(=C/c2cccs2)C1 [Compound 5p, 4-Chloro-2-[(3E,5E)-4-oxo-3,5-bis(thiophen-2-ylmethylene)piperidine-1-carbonyl]phenyl acetate] | 6.25 ± 0.49 | 3.2 | 6.25 ± 0.61 | 3.18 | 6.38 ± 0.44 | 3.12 | 19.9 ± 1.21 | 40.7 | 2.209 | 39.6 | 2.304 | 59.0 | 1.731 | 56.3 | 1.763 | 0.285 | 0.138 | 2.065 | 233.6 | –
3 | CC(=O)Oc1ccccc1C(=O)N1C/C(=C\c2ccc(F)cc2)C(=O)/C(=C/c2ccc(F)cc2)C1 [Compound 5b, 2-[3,5-Bis((E)-4-fluorobenzylidene)-4-oxopiperidine-1-carbonyl]phenyl acetate] | 2.12 ± 0.19 | 3.9 | 5.76 ± 0.47 | 1.44 | 5.1 ± 0.51 | 1.63 | 8.3 ± 0.71 | 57.0 | 1.6 | 70.9 | 1.11 | 83.7 | 0.69 | 72.8 | 1.1 | 0.146 | 0.442 | 0.330 | 22.7 | –
4 | CC(=O)Oc1ccccc1C(=O)N1C/C(=C\c2ccc(C)cc2)C(=O)/C(=C/c2ccc(C)cc2)C1 [Compound 5e, 2-[3,5-Bis((E)-4-methylbenzylidene)-4-oxopiperidine-1-carbonyl]phenyl acetate] | 0.639 ± 0.07 | 15.5 | 6 ± 0.5 | 1.65 | 2.56 ± 0.18 | 3.87 | 9.89 ± 0.75 | 40.9 | 2.202 | 42.1 | 2.209 | 59.6 | 1.707 | 58.8 | 1.664 | 0.249 | 1.56 | 0.160 | 37.4 | –
5 | CC(=O)Oc1ccccc1C(=O)N1C/C(=C\c2ccccc2)C(=O)/C(=C/c2ccccc2)C1 [Compound 5a, 2-[3,5-Di((E)-benzylidene)-4-oxopiperidine-1-carbonyl]phenyl acetate] | 4.49 ± 0.41 | 2.4 | 4.74 ± 0.38 | 2.25 | 4.72 ± 0.42 | 2.25 | 10.6 ± 1.04 | 64.6 | 1.32 | 67.5 | 1.24 | 90.3 | 0.41 | 69.3 | 1.24 | 0.249 | 1.55 | 0.161 | 18.5 | –
6 | CC(=O)Oc1ccccc1C(=O)N1C/C(=C\c2cccs2)C(=O)/C(=C/c2cccs2)C1 [Compound 5i, 2-[(3E,5E)-4-Oxo-3,5-bis(thiophen-2-ylmethylene)piperidine-1-carbonyl]phenyl acetate] | 2.15 ± 0.15 | 8.8 | 5.58 ± 0.52 | 3.41 | 9.26 ± 0.61 | 2.06 | 19 ± 0.99 | 46.3 | 2.000 | 39.8 | 2.297 | 63.6 | 1.540 | 61.3 | 1.564 | 0.455 | 0.772 | 0.589 | 125.6 | –
7 | COc1ccc(/C=C2\CN(C(=O)c3cc(Cl)ccc3OC(C)=O)C/C(=C\c3ccc(OC)cc3)C2=O)cc1 [Compound 5m, 2-[3,5-Bis((E)-4-methoxybenzylidene)-4-oxopiperidine-1-carbonyl]-4-chlorophenyl acetate] | 3.81 ± 0.29 | 1.9 | 5.06 ± 0.45 | 1.43 | 5.94 ± 0.46 | 1.22 | 7.23 ± 0.51 | 47.2 | 1.966 | 70.4 | 1.13 | 62.4 | 1.59 | 68.5 | 1.273 | 0.146 | 0.319 | 0.452–0.467 | 138.7 | SI = IC50(COX-1)/IC50(COX-2) (COX-2; listed as 5 m): 0.458
8 | COc1ccc(/C=C2\CN(C(=O)c3ccccc3OC(C)=O)C/C(=C\c3ccc(OC)c(OC)c3)C2=O)cc1OC [Compound 5g, 2-[3,5-Bis((E)-3,4-dimethoxybenzylidene)-4-oxopiperidine-1-carbonyl]phenyl acetate] | 0.973 ± 0.07 | 10.6 | 4.97 ± 0.42 | 2.08 | 2.39 ± 0.21 | 4.32 | 10.3 ± 1.1 | 37.6 | 2.324 | 37.3 | 2.393 | 61.2 | 1.638 | 61.5 | 1.554 | 0.262 | 2.18 | 0.120 | 57.5 | –
